# Source: US8586620B2, “Substituted indole compounds having NOS inhibitory activity” (NeurAxon, Inc., priority 2005, dated 2013)
# Counter-ions that a name gives are not always drawn. Like-named read-outs stand apart in the source and are kept apart here.
# What was measured:
# [1] = target: human inducible NOS (iNOS) (Homo sapiens (Human), UniProt P35228); assay: Human iNOS enzyme assay, radiometric; assay type: biochemical
# Description: Standard deviations were 10% or less.
# [2] = target: human neuronal constitutive NOS (nNOS) (Homo sapiens (Human), UniProt P29475); assay: Human nNOS enzyme assay, radiometric [3H]L-arginine to [3H]L-citrulline;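 also: recombinant human nNOS expressed in baculovirus-infected Sf9 cells, enzyme activity measured radiometrically as turnover of [3H]L-arginine into [3H]L-citrulline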
# Protocol: (§2) In a radiometric method, NO synthase activity was determined by measuring the conversion of [^3H]L-arginine to [^3H]L-citrulline.
# (§3) The total volume of the reaction mixture was 150 μL in every well. […] The reaction was stopped by adding 20 μL of ice-cold buffer containing 100 mM HEPES, 3 mM EGTA, 3 mM EDTA, pH=5.5. [^3H]L-citrulline was separated by DOWEX (ion-exchange resin DOWEX 50 W X 8-400, SIGMA) and the DOWEX was removed by spinning at 12,000 g for 10 min in the centrifuge. […] All assays were performed at least in duplicate. Standard deviations were 10% or less.
# [3] = system: L5/L6 spinal nerve ligation; assay: Chung spinal nerve ligation (SNL) model of neuropathic pain; assay type: in vivo; details: rats; for tactile hyperthesia: L5/L6 spinal nerve ligation, FIGS. 20 and 22; for thermal hyperalgesia: one standard dose (10 mg/kg) injected IP, FIG. 19, 21
# Protocol: (a) Chung Model of Injury-induced Neuropathic-like Pain: The experimental designs for the Chung Spinal Nerve Ligation SNL Model assay for neuropathic pain are depicted in FIG. 18. Nerve ligation injury was performed according to the method described by Kim and Chung (Kim and Chung, Pain 50:355-363, 1992). This technique produces signs of neuropathic dysesthesias, including tactile allodynia, thermal hyperalgesia, and guarding of the affected paw. Rats were anesthetized with halothane and the vertebrae over the L4 to S2 region were exposed. The L5 and L6 spinal nerves were exposed, carefully isolated, and tightly ligated with 4-0 silk suture distal to the DRG. After ensuring homeostatic stability, the wounds were sutured, and the animals allowed to recover in individual cages. Sham-operated rats were prepared in an identical fashion except that the L5/L6 spinal nerves were not ligated. […] After a period of recovery following the surgical intervention, rats show enhanced sensitivity to painful and normally non-painful stimuli.
# [4] = target: human endothelial constitutive NOS (eNOS) (Homo sapiens (Human), UniProt P29474); assay: Human eNOS enzyme assay, radiometric;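 also: recombinant human eNOS expressed in baculovirus-infected Sf9 cells, activity read as [3H]L-arginine turned into [3H]L-citrulline, the product isolated on ion-exchange resin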
# Protocol: as §2, §3
# Rat nNOS = Rat nNOS (Rattus norvegicus (Rat), UniProt P29476); assay: Rat nNOS hemoglobin capture assay; assay type: biochemical; details: Table 2a
# Description: (§1) The NOS isoforms used in this example were recombinant enzymes expressed in E. coli. Rat nNOS was expressed and purified as described previously (Roman et al., Proc. Natl. Acad. Sci. USA 92:8428-8432, 1995). The bovine eNOS isoform was isolated as reported (Martasek et al., Biochem. Biophys. Res. Commun. 219:259-365, 1996) and murine macrophage iNOS was expressed and isolated according to the procedure of Hevel et al. (J. Biol. Chem. 266:22789-22791, 1991). IC50 values and percent inhibition of NOS by the compounds of the invention were determined under initial velocity measurement conditions with the hemoglobin capture assay as previously described (Hevel and Marletta, Methods Enzymol. 133:250-258, 1994). In this assay, nitric oxide reacts with oxyhemoglobin to yield methemoglobin, which was detected at 401 nm (e=19,700 M^−1 cm^−1) on a Perkin-Elmer Lamda 10 UV/vis spectrophotometer. The assays were performed using varying test compound concentrations. Assay mixtures for nNOS or eNOS contained […], 1.6 mM CaCl2, 11.6 mg/mL calmodulin, […], 6.5 mM BH4 and […] in 100 mM Hepes (pH 7.5). Assay mixtures for iNOS contained 10 mM of L-arginine, […], 6.5 mM BH4 and […] in 100 mM Hepes (pH 7.5). All assays were conducted in a final volume of 600 μL and were initiated with enzyme.
# murine macrophage iNOS = murine macrophage iNOS (Mus musculus (Mouse), UniProt P29477); assay: Murine iNOS hemoglobin capture assay; assay type: biochemical
# Description: as §1
# bovine eNOS = bovine eNOS (Bos taurus (Bovine), UniProt P29473); assay: Bovine eNOS hemoglobin capture assay; assay type: biochemical
# Description: as §1
# [5] = system: rat cortical neuronal cultures; assay: Neuroprotection of rat cortical cells against NMDA challenge; assay type: cell-based; details: 60-minute pre-incubation; 30 minutes 25 μM NMDA; propidium iodide after 24 hrs; FIG. 1
# Protocol: According to a previously reported procedure (Tremblay et al., J Neurosci. 20(19):7183-92, 2000), test compounds were added for a 60-minute pre-incubation period to rat cortical neuronal cultures, which were then exposed for 30 minutes to 25 μM NMDA in buffer. After 24 hrs cultures were treated with propidium iodide and the % cell death determined and compared to control cells.
# 5-HT1B = 5-HT1B (Rattus norvegicus (Rat), UniProt P28564); assay: 5-HT1B binding assay (agonist radioligand), rat cerebral cortex
# Protocol: 5-HT1D binding assays (agonist radioligand)were performed using bovine caudate membranes according to the methods of Heuring and Peroutka (J. Neurosci 1987, 7: 894-903). 5-HT1B (rat cerebral cortex) binding assays (agonist radioligand) were performed according to the method of Hoyer et. al. (Eur. J. Pharmacol. 1995, 118: 1-12). For the purpose of result analysis, the specific ligand binding to the receptors is defined as the difference between the total binding and the nonspecific binding as determined in the presence of an excess of unlabelled ligand. The results are expressed as a percent of control specific binding obtained in the presence of the test compounds. IC50 values (concentration causing a half-maximal inhibition of control specific binding) and Hill coefficients (nH) were determined by non-linear regression analysis of the competition curves using Hill equation curve fitting and the inhibition constants (Ki) were calculated from the Cheng Prusoff equation (Ki=IC50/(1+(L/KD)), where L=concentration of radioligand in the assay, and KD=affinity of the radioligand for the receptor).
# hindpaw allodynia = assay: Experimental migraine model, inflammatory soup on dura, hindpaw allodynia
# cardiogenic shock = details: randomized trial of 30 patients; reduced from 67%; cited from earlier work
# persistent shock = details: up to 30 days; 11 patients with persistent shock; cited from earlier work
# migraine = details: single i.v. administration; human migraine; cited from earlier work
# migraine attack = details: open pilot study; cited from earlier work
# [6] = Table 2a, hemoglobin capture assay, read-out: Murine iNOS
# [7] = Table 2a, hemoglobin capture assay, read-out: Bovine eNOS
# [8] = Table I, human NOS, dihydrochloride or monohydrochloride salts, read-out: iNOSh
# [9] = read-out: nNOSh, Table I, human NOS, dihydrochloride or monohydrochloride salts
# [10] = read-out: eNOSh, Table I, human NOS, dihydrochloride or monohydrochloride salts
# [11] = 6 mg/kg i.v. 10 minutes prior to IS
# Sequence of 5-HT1B (P28564 whole entry): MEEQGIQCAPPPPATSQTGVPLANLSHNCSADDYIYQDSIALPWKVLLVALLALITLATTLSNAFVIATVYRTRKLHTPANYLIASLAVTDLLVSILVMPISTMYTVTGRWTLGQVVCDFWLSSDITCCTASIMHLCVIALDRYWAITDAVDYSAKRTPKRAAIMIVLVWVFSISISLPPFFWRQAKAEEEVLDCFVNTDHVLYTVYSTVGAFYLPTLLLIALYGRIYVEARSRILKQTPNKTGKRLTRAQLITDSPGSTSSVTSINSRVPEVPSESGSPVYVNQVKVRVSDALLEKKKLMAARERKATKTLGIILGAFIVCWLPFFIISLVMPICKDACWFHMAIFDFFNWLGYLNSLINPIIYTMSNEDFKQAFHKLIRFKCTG
smiles,measurement,setting,value
"CN1CCC[C@H]1CCc1c[nH]c2ccc(NC(=N)c3cccs3)cc12 (as salt: hydrochloride) [Compound 147, (R)-N-(3-(2-(1-Methylpyrrolidin-2-yl)ethyl)-1H-indol-5-yl)thiophene-2-carboximidamide]",melting point,,212 °C
CN1CCCC1CCn1ccc2ccc(NC(=N)c3cccs3)cc21 (stereo not drawn) [32(+)],IC50,"[1]; Table 2b, read-out: Human iNOS",72.8 µM
same,IC50,"[2]; read-out: Human nNOS, Table 2b",0.32 µM
same,tactile hyperthesia,[3],reversal of tactile hyperthesia
same,thermal hyperalgesia,[3],clear antihyperalgesic effect
same,IC50,"[4]; read-out: Human eNOS, Table 2b",16 µM
CN1CCCC1CCn1ccc2ccc(NC(=N)c3cccs3)cc21 (stereo not drawn) [32(−)],IC50,"[1]; Table 2b, read-out: Human iNOS",72.6 µM
same,IC50,"[2]; read-out: Human nNOS, Table 2b",0.2 µM
same,tactile hyperthesia,[3],reversal of tactile hyperthesia
same,thermal hyperalgesia,[3],clear antihyperalgesic effect
same,IC50,"[4]; read-out: Human eNOS, Table 2b",24 µM
CCSC(=N)Nc1ccc2[nH]ccc2c1 [Compound 4],IC50,Rat nNOS,29.6 µM
same,IC50,murine macrophage iNOS; [6],46.9 µM
same,IC50,bovine eNOS; [7],164 µM
N=C(Nc1ccc2[nH]ccc2c1)c1cccs1 [Compound 5],IC50,Rat nNOS,57.6 µM
same,IC50,bovine eNOS; [7],643 µM
CN(C)CCc1c[nH]c2ccc(NC(=N)c3cccs3)cc12 [Compound 18],IC50,"[1]; Table 2b, read-out: Human iNOS",12 µM
same,IC50,[1]; [8],12 µM
same,e/n,"[2]; Table I, ratio eNOSh/nNOSh",10
same,IC50,"[2]; read-out: Human nNOS, Table 2b",2.6 µM
same,IC50,[2]; [9],2.6 µM
same,IC50,"[4]; read-out: Human eNOS, Table 2b",26 µM
same,IC50,[4]; [10],26 µM
same,protection of neuronal cells from death upon NMDA challenge,[5],protected neuronal cells from death
same,IC50,Rat nNOS,3.3 µM
same,IC50,murine macrophage iNOS,43.5 µM
same,IC50,bovine eNOS,248 µM
N=C(Nc1ccc2ccn(CCc3ccccc3)c2c1)c1cccs1 [Compound 27],IC50,"[1]; Table 2b, read-out: Human iNOS",320 µM
same,IC50,"[2]; read-out: Human nNOS, Table 2b",12 µM
same,IC50,"[4]; read-out: Human eNOS, Table 2b",> 100 µM
same,IC50,Rat nNOS,14.6 µM
same,IC50,murine macrophage iNOS; [6],159 µM
same,IC50,bovine eNOS; [7],> 300 µM
CN1CCCC1CCn1ccc2ccc(NC(=N)c3cccs3)cc21 (stereo not drawn) [Compound 32],IC50,Rat nNOS,4.1 µM
same,IC50,murine macrophage iNOS; [6],67.2 µM
same,IC50,bovine eNOS; [7],6.2 µM
"CN1CC=C(c2c[nH]c3ccc(NC(=N)c4cccs4)cc23)CC1 [Compound 42, N-(3-(1-methyl-1,2,3,6-tetrahydropyridin-4-yl)-1H-indol-5-yl)thiophene-2-carboximidamide]",IC50,[1]; [8],20 µM
same,e/n,[2],53
same,IC50,[2]; [9],0.92 µM
same,IC50,[4]; [10],51.1 µM
same,IC50,5-HT1B,0.16 µM
same,development of hindpaw allodynia,hindpaw allodynia; [11],prevents the development of hindpaw allodynia
"CCN1CCC(c2c[nH]c3ccc(NC(=N)c4cccs4)cc23)CC1 [Compound 61, N-(3-(1-ethylpiperidin-4-yl)-1H-indol-5-yl)thiophene-2-carboximidamide]",melting point,,150 to 152 °C
"CN1CCC[C@@H]1Cc1c[nH]c2ccc(NC(=N)c3cccs3)cc12 [Compound 97, (R)-N-(3-((1-Methylpyrrolidin-2-yl)methyl)-1H-indol-5-yl)thiophene-2-carboximidamide]",e/n,"[2]; Table I, ratio eNOSh/nNOSh",41
same,IC50,[2]; [9],0.84 µM
same,IC50,[4]; [10],34.5 µM
same,IC50,5-HT1B,0.31 µM
same,development of hindpaw allodynia,hindpaw allodynia; [11],prevents the development of hindpaw allodynia
COC(=O)[C@@H](N)CCCNC(=N)N[N+](=O)[O-] [L-NAME],patient mortality,cardiogenic shock,27%
"CN=C(N)NCCC[C@H](N)C(=O)O.Cl [L-NMMA, L-N^G methylarginine hydrochloride]",survival rate,persistent shock,72%
same,development of hindpaw allodynia,hindpaw allodynia; 10 mg/kg i.v 10 minutes prior to IS,prevents the development of hindpaw allodynia
same,response rate,migraine,67%
"CNS(=O)(=O)Cc1ccc2[nH]cc(CCN(C)C)c2c1 [Sumatriptan, reference compound]",development of hindpaw allodynia,"hindpaw allodynia; 1 mg/kg s.c. 5 minutes prior to soup, two hours after IS",prevention of the development of hindpaw allodynia
C/C1=C2/[N-][C@H]([C@H](CC(N)=O)[C@@]2(C)CCC(=O)NC[C@@H](C)OP(=O)([O-])O[C@H]2[C@@H](O)[C@@H](n3cnc4cc(C)c(C)cc43)O[C@@H]2CO)[C@]2(C)N=C(/C(C)=C3N=C(/C=C4N=C1[C@@H](CCC(N)=O)C\4(C)C)[C@@H](CCC(N)=O)[C@]\3(C)CC(N)=O)[C@@H](CCC(N)=O)[C@]2(C)CC(N)=O.[Co+3].[OH-] [hydroxycobalamin],patients with reduction in the frequency of migraine attack of 50%,migraine attack,53%
